{"source": "patent US20230235409A1", "about": "“METHOD OF PREDICTING THERAPEUTIC RESPONSE AND PROGNOSIS OF METASTATIC BREAST CANCER TO CHEMOTHERAPEUTIC AGENTS, AND TREATING METASTATIC BREAST CANCER” (Samsung Life Public Welfare Foundation, priority 2021, published 2023)", "system": "premenopausal HR+/HER2− metastatic breast cancer", "assay": "Kaplan Meier PFS analysis of capecitabine-treated patients by five-gene marker combination", "assay_type": "in vivo", "protocol": "Among 141 premenopausal HR+/HER2− MBC patients, a tumor sample was isolated from a group (n=62) administered with capecitabine, and sequencing was performed on the sample. CancerSCAN™ targeted panel sequencing was performed to detect 375 cancer-related gene variations, and transcriptome analysis was performed to detect overall gene expression patterns.\nA univariate Cox proportional hazard model was analyzed for each genetic variation/CNV, the p-value derived by the log-rank test was defined as a p-value cutoff of 0.05 as the criterion for a statistically significant difference, and 30 biomarkers with p-value<0.05 were selected as candidate markers. […] In other words, the description of “NF2+FAT3” includes the case where there exists a mutation in either NF2 or FAT3 gene.", "data": [{"smiles": "CCCCCOC(=O)Nc1nc(=O)n([C@@H]2O[C@H](C)[C@@H](O)[C@H]2O)cc1F", "note": "[capecitabine]", "values": [{"measurement": "median PFS", "setting": "mutant group (mutation in NF2, FAT3, LRP1B, PTEN or RAD50), capecitabine-administered group n=62, FIG. 3", "value": 12, "unit": "months"}, {"measurement": "risk of mutant group relative to normal group (WT), PFS", "setting": "mutant group vs WT (no mutation in all five genes), capecitabine-administered patients, FIG. 3", "value": "about 5 times"}]}]}
